# Assay results as given in article PMC7290441 (Viruses, 2020).
# Structures can show the parent of a compound that is named as a salt.
# Target: PR8M2-S (A27V/N31S reverse mutant of PR8 M2) (Influenza A virus, UniProt P06821, A27V/N31S)
# Assay type: biochemical
# Details: pH 5.2
compound,measurement,value
"NC12CC3CC(CC(C3)C1)C2 [AMT, amantadine hydrochloride]",effect on proton channel function of PR8M2-S,inhibited
"CC(CCc1ccccc1)NC(C)C(O)c1ccc(O)cc1 (centres unmarked) [Nylidrin, nylidrin]",effect on proton channel function of PR8M2-S,no effect
